Assay results reported in patent EP0592876A1, “Antimycotic dermatological and cosmetic compositions” (Beiersdorf Aktiengesellschaft, priority 1992, dated 1994).

Test system: Pityrosporum ovale
Test: agar diffusion inhibition-zone test (Hemmhof-Test)
Type: cell-based
Method: TY-Medium 10 g Trypton + 5 g Hefeextrakt + 10 g NaCl, aufgelöst in 1000 ml H₂O, gepuffert auf pH 7,4 , autoklaviert. Testverbindung 1: Polyoxyethylen-20-stearylether Testverbindung 2: Polyoxyethylen-20-isostearylalkohol Testverbindung 3: Polyoxyethylen-21-stearylalkohl Testverbindung 4: Polyoxyethylen-5-cetyl/stearylether Testverbindung 5: Polyoxyethylen-25-Fettalkohol Testverbindung 6: Polyoxyethylen-6-cetyl/stearylether Testverbindung 7: Polyoxyethylen-C₁₂-C₁₅-Alkylether Pityrosporum ovale, isoliert von drei Patienten mit Pityrosporum-Follikulitis, Pityriasis versicolor oder seborrhoischem Ekzem wurde in einer Mischung aus 50 % TY-Medium, 30 % Olivenöl und 20 % Tween 80 suspendiert. Die drei verschiedenen Hefestämme wurden in drei parallelen Ansätzen auf einer Selektivagarplatte für pathogene Pilze (Merck AG, Darmstadt) gleichmäßig ausgespatelt. Mit Hilfe steriler Korkbohrer wurden in jede Platte mehrere kreisrunde Vertiefungen gestanzt, In die Vertiefungen mit einem Durchmesser von 5 mm wurden jeweils 25 µl der Testlösungen gegeben. Die Testlösungen stellten 1%-ige und 10%-ige Lösungen der Testsubstanzen in Ethanol dar.
Nach dreistündiger Inkubation bei 37° C wurde das verdunstete Lösungsmittel durch je 25 µl Jojobaöl ersetzt und die Platten anschließend unter Beibehaltung der Wachstumsbedingungen drei Tage inkubiert. Während dieser Zeit diffundierten die Testsubstanzen in den die Vertiefungen umgebenden Nährboden.
Antimycotisch wirksame Testverbindungen zeigten nach dreitägiger Inkubation einen mehr oder weniger deutlichen konzentrischen Hemmhof um die Vertiefungen. Die Größe dieser Hemmhöfe, wiedergegeben in Tabelle 1, ist bei vergleichbarer Substanzkonzentration ein Maß für die antimycotische Wirksamkeit der Testverbindungen. Tabelle 1
Testverbindung 8 : Polyoxyethylen-[…]-Dodecylether Testverbindung 9 : Polyoxyethylen-20-Stearylether Testverbindung 10: Polyoxyethylen-20-isostearylalkohol Testverbindung 11: Polyoxyethylen-21-stearylalkohol Testverbindung 12: Polyoxyethylen-5-Cetyl/stearylether Testverbindung 13: Polyoxyethylen-25-Fettalkohol Testverbindung 14: Polyoxyethylen-6-Cetyl/Stearylether + Stearylalkohol Testverbindung 15: Polyoxyethylen-C₁₂-C₁₅-Alkylether Von den Testverbindungen 8 - 15 wurden ethanolische Lösungen der Konzentrationen 0,5 %, 1,0 %, 5,0 % und 10,0 % hergestellt und in den Hemmhof-Test eingeführt. Die Versuchsdurchführung entspricht in ihrem Ablaufe dem zu Versuch 1 geschilderten. Die Größe der betreffenden Hemmhöfe ist in Tabelle 2 wiedergegeben. Tabelle 2

[1] = Versuch 1, 1%-ige Lösung in Ethanol, 25 µl per 5 mm well, three days incubation at 37° C, three strains isolated from patients
[2] = Versuch 1, 10%-ige Lösung in Ethanol, 25 µl per 5 mm well, three days incubation at 37° C, three strains isolated from patients
[3] = Versuch 2, Konz. 0,5 % ethanolic solution, procedure as Versuch 1
[4] = Versuch 2, Konz. 1,0 % ethanolic solution, procedure as Versuch 1
[5] = Versuch 2, Konz. 5,0 % ethanolic solution, procedure as Versuch 1
[6] = Versuch 2, Konz. 10,0 % ethanolic solution, procedure as Versuch 1

| Substance | mittlerer Hemmhof-Durchmesser [1] | mittlerer Hemmhof-Durchmesser [2] | mittlerer Hemmhof-Durchmesser [3] | mittlerer Hemmhof-Durchmesser [4] | mittlerer Hemmhof-Durchmesser [5] | mittlerer Hemmhof-Durchmesser [6] |
| --- | --- | --- | --- | --- | --- | --- |
| Polyoxyethylen-25-Fettalkohol [Testlösung 5] | 7,0 mm | 13,0 mm |  |  |  |  |
| Polyoxyethylen-C₁₂-C₁₅-Alkylether [Testlösung 7] | 9,5 mm | 15,0 mm |  |  |  |  |
| Polyoxyethylen-21-stearylalkohol [Testlösung 11] |  |  | 10,0 mm | 11,7 mm | 12,0 mm | 12,7 mm |
| Polyoxyethylen-20-Stearylether [Testlösung 9] |  |  | 10,7 mm | 14,0 mm | 18,7 mm | 20,7 mm |
| Polyoxyethylen-20-isostearylalkohol [Testlösung 10] |  |  | 9,0 mm | 9,0 mm | 15,0 mm | 17,3 mm |
| Polyoxyethylen-20-stearylether [Testlösung 1] | 10,0 mm | 15,5 mm |  |  |  |  |
| Polyoxyethylen-??-Dodecylether [Testlösung 8] |  |  | 14,0 mm | 15,5 mm | 18,0 mm | 20,7 mm |
| Polyoxyethylen-21-stearylalkohl [Testlösung 3] | 7,0 mm | 11,0 mm |  |  |  |  |
| Polyoxyethylen-25-Fettalkohol [Testlösung 13] |  |  | 10,0 mm | 11,5 mm | 15,7 mm | 18,3 mm |
| Polyoxyethylen-20-isostearylalkohol [Testlösung 2] | 11,0 mm | 12,0 mm |  |  |  |  |
| Polyoxyethylen-C₁₂-C₁₅-Alkylether [Testlösung 15] |  |  | 9,0 mm | 12,7 mm | 17,0 mm | 20,0 mm |
| Polyoxyethylen-6-cetyl/stearylether [Testlösung 6] | 9,5 mm | 14,0 mm |  |  |  |  |
| Polyoxyethylen-5-Cetyl/stearylether [Testlösung 12] |  |  | 11,0 mm | 14,0 mm | 16,5 mm | 16,5 mm |
| Polyoxyethylen-5-cetyl/stearylether [Testlösung 4] | 8,5 mm | 9,5 mm |  |  |  |  |
